Reference: paper PMC8944987, “In Vivo Efficacy of SQ109 against Leishmania donovani, Trypanosoma spp. and Toxoplasma gondii and In Vitro Activity of SQ109 Metabolites” (Biomedicines, 2022)
pEC50, pIC50: −log10 of the molar value. Entries after “also recorded” stand apart in the source; their conditions may differ. Like-named read-outs stand apart in the source and are kept apart here.

Columns and labels:
[1] = system: intracellular L. donovani amastigotes in THP-1; experiment: L. donovani intracellular amastigotes assay in THP-1 (image based); format: cell-based
[2] = system: T. gondii tachyzoites of the RH strain; experiment: T. gondii in vivo mouse model; design: species or system Webster mice; details: for survival of T. gondii infected mice: 20 and 50 mg/kg daily for 10 days
[3] = cited from earlier work
[4] = Reported plasma protein binding; format: in vitro ADME, mice; details: from the reported plasma protein binding
[5] = Reported tissue (liver) accumulation on repeated oral dosing; format: in vivo; details: assuming the same volume-to-mass ratio, 28-day oral dosing, 10 mg/kg, from ref 30, read-out: SQ109 liver concentration
[6] = system: Plasmodium falciparum mature gametocytes (stage IV/V); design: method as in PMID 33431834; details: cited from earlier work
[7] = Adverse effects observed during the in vivo experiments; design: species or system mice; details: tested doses (20 to 100 mg/kg)
[8] = system: L. mexicana intracellular amastigotes; design: method as in PMID 27458218; details: cited from earlier work
[9] = system: L. mexicana promastigotes; design: method as in PMID 27458218; details: cited from earlier work
[10] = system: T. cruzi Dm28c epimastigotes; experiment: T. cruzi epimastigotes assay (resazurin); format: cell-based; details: Trypanosoma cruzi
Procedure: The exponential growth phase of epimastigotes were treated with different concentrations of drugs or 0.1% DMSO as negative control and incubated for 3 days at 28 °C. The viability of parasites was quantified with resazurin as described in the T. brucei assay.

T. b. brucei Lister 427 = experiment: T. brucei acute in vivo mouse model; design: species or system BALB/c mice
T. cruzi epimastigotes = system: T. cruzi epimastigotes; design: method as in PMID 25583723; details: cited from earlier work
[11] = system: T. b. brucei Lister strain 427 bloodstream form (BSF); experiment: In vitro activity assay for T. brucei (resazurin growth inhibition); format: cell-based; details: Trypanosoma brucei
[12] = in vivo, 25 mg/kg; cited from earlier work
[13] = system: intracellular T. cruzi Dm28c amastigotes in U2OS; experiment: T. cruzi intracellular amastigotes assay in U2OS (image based); format: cell-based; details: Trypanosoma cruzi
Procedure: (§1) U2OS human osteosarcoma cells were maintained in DMEM supplemented with high glucose, 10% FBS, and 1% P/S at 37 °C with 5% CO2 in air. […] Cell images were acquired by an automated image analyzer (Operetta, Perkin Elmer Technology, Waltham, MA, USA); analysis included at least 1000 cells in five fields per well. For the imaging of infected cells and parasites, Draq-5 was observed under a 20× air objective. An image analysis algorithm (Columbus, Perkin Elmer Technology) was used to detect the Draq-5 signal in the nuclei of cells and parasites as described in a previous article and shown in Supplementary Figure S1 [20]. The number of parasites was defined by the value of the number of parasites in infected cells of the acquired image.

L. donovani amastigotes = experiment: L. donovani (VL) in vivo mouse model, liver LDU; design: species or system BALB/c mice; details: for parasite burden in liver (LDU): 5 days of treatment; for reduction of parasite burden: versus vehicle-treated group
Procedure: BALB/c mice (n = 5) were injected with 2 × 10^7 hamster spleen-derived L. donovani amastigotes via the retro-orbital venous sinus route. From day 7 post-infection, groups of mice were treated using the drug vehicle only, miltefosine (30 mg/kg), or SQ109 (30, 50, 100 mg/kg). On day 16 post-infection, all animals were humanely euthanized and assessed microscopically using Giemsa-stained liver imprints. […] The LDU values for the drug-treated samples were compared to those of the untreated samples.

[14] = Host cell toxicity in the T. cruzi amastigote assay; format: cell-based; details: human
Procedure: as §1

[15] = system: L. donovani promastigotes; experiment: L. donovani promastigotes assay (resazurin); format: cell-based; details: Leishmania donovani
[16] = design: method as in PMID 16432511; details: in mice; cited from earlier work
T. cruzi Dm28c = experiment: T. cruzi acute in vivo mouse model; design: species or system BALB/c mice
Text: BALB/c mice were infected with TCT of T. cruzi Dm28c (10^7 cells) by i.p. injection. Five days post-infection, infected mice were sacrificed to collect BSF of T. cruzi. BALB/c mice were intraperitoneally infected with BSF of T. cruzi Dm28c (5 × 10^4 cells). Five days post-infection, BALB/c mice were infected with previously collected 2nd-round BSF cells (3 × 10^4 cells). Mice were divided into groups (n = 10) and treated orally with drugs for 5 consecutive days for 2 weeks by starting from day 2 post-infection administration of DPBS, 100 mg/kg of benznidazole, or 100 mg/kg of SQ109 via p.o. route, respectively. Parasitemia was evaluated every 2 days for 5 weeks by blood collection from the mouse tail vein, and survival was monitored for 2 months. Mice showing impaired health status were euthanized.

[17] = system: L. donovani intracellular amastigotes; design: method as in PMID 31897791; details: J774 macrophages as host cells; cited from earlier work
[18] = 100 mg/kg oral gavage, q.d. for 2 weeks

## CC(C)=CCC/C(C)=C/CNCCNC1C2CC3CC(C2)CC1C3 (centres unmarked) [SQ109, N-adamantan-2-yl-N’-((E)-3,7-dimethyl-octa-2,6-dienyl)-ethane-1,2-diamine]
[1]; L. donovani, THP-1 (this study) versus J774 (ref 10)
  anti-amastigote activity in the current study less than the reported one: ~ 200 fold
[1]; Leishmania donovani, 72 h, differentiated THP-1 host cells, 3 days of compound incubation, Figure 2F
  pIC50: 5.86
[2]; hypervirulent RH strain, 50 mg/kg i.p.
  survival / protection of T. gondii infected mice against the initial infection: Eighty percent
[2]; i.p., Figure 6B
  survival of T. gondii infected mice: 50–80%
[2]; oral gavage, 40 days post-infection, Figure 6C
  survival of T. gondii infected mice: 30–40%
[2]; treated with 20 mg/kg/day
  animals surviving the re-challenge at day 42: 4 out of 6
[2]; treated with 50 mg/kg/day
  outcome of the re-challenge at 42 days, in words: all died with the challenge
[3]
  maximum tolerated dose (MTD): 600 mg/kg
[4]
  free-drug fraction expected in mice plasma: ~ 90%
[5]
  concentration at 28 days: ~6 µM
[6]
  pIC50: 6.98
[7]
  adverse effects throughout the in vivo experiments: did not observe any adverse effects
[8]
  pIC50: ~7.96
[9]
  pIC50: ~6.30
[10]; 72 h, Figure 2C, read-out: IC50, T. cruzi epimastigote growth inhibition (resazurin reduction)
  pIC50: 4.90
[10]; epimastigotes, read-out: T. cruzi Dm28c EC50 (EPI)
  pEC50: 5.35
T. b. brucei Lister 427; 30 mg/kg, q.d. for 5 days, p.o.
  extended survival compared to the vehicle control: 3.4 days
T. b. brucei Lister 427; 30 mg/kg, q.d. for 5 days, p.o., T. brucei infected BALB/c mice
  average day of survival: 8.6 days
T. b. brucei Lister 427; 100 mg/kg, q.d. for 5 days, p.o.
  average days of extended survival compared to the vehicle control: 3.6 days
T. b. brucei Lister 427; 30 or 100 mg/kg p.o. for 5 days, Figure 3B
  parasitemia in blood, in words: parasitemia rapidly increased after the termination of SQ109 administration; also recorded: not able to completely clear the parasites in the bloodstream
T. cruzi epimastigotes
  pIC50: 5.34
[11]; bloodstream forms, read-out: T. brucei BSF EC50 (converted)
  EC50: 810 nM
[11]; 3 days (72 h) of compound incubation, Figure 2A, read-out: IC50, T. brucei trypomastigote viability
  pIC50: 6.49
[12]
  t1/2 (terminal phase): 5.2 h
[13]; 72 h, U2OS host cells, 3 days of compound incubation, Figure 2D, read-out: IC50, intracellular T. cruzi amastigote survival
  pIC50: 6.21
[13]; amastigotes in U2OS, read-out: T. cruzi Dm28c EC50 (AMA)
  pEC50: 5.96
L. donovani amastigotes; 30 mg/kg
  parasite burden in liver (LDU): 1060 ± 110 LDU
L. donovani amastigotes; 50 mg/kg
  parasite burden in liver (LDU): 772 ± 89 LDU
  reduction of parasite burden: 31.8%
L. donovani amastigotes; 100 mg/kg
  parasite burden in liver (LDU): 737 ± 145 LDU
  reduction of parasite burden: 34.9%
[14]; 3 days of compound incubation, Figure 2D, read-out: half-maximal cytotoxic concentration (CC50) against the host U2OS
  CC50 at 3 days: 2950 nM
[14]; amastigote host cells, read-out: T. cruzi Dm28c CC50 (U2OS)
  CC50 at 3 days: 3600 nM
[15]; promastigotes, read-out: L. donovani EC50 (PRO)
  pEC50: 6.55
[15]; 72 h, Figure 2E, read-out: IC50, L. donovani promastigote growth
  pIC50: 6.76
[16]
  plasma protein binding: 5.8–8.5%
T. cruzi Dm28c; [18]
  delay of the peak of parasitemia compared to the vehicle control: 4 days
  peak of parasitemia: 18 days post-infection
T. cruzi Dm28c; 100 mg/kg oral gavage, q.d. for 2 weeks, 14 days post-infection
  parasite reduction at the peak of parasitemia of the vehicle group: 46.1%
T. cruzi Dm28c; 100 mg/kg p.o., 40 days post-infection
  survival of T. cruzi infected mice: 80%
[17]
  pIC50: 8.14
